Laboratory results from patent US5710130A, “Antithrombotic agents” (Eli Lilly and Company, priority 1995, dated 1998).
Structures can show the parent of a compound that is named as a salt.

Columns and labels:
Format in all cases: biochemical
[1] = molecular target: Human Thrombin (Homo sapiens, UniProt P00734); assay: Inhibition of thrombin amidase activity (Kass), chromogenic substrate; conditions: mean Kass over a range of concentrations; substrate N-benzoyl-Phe-Val-Arg-p-nitroanilide
[2] = system: human plasma; assay: Human plasma anticoagulation, thrombin time (TT); conditions: concentration required to double thrombin time, linear extrapolation
Method: (§1) Dog plasma and rat plasma is obtained from conscious mixed-breed hounds (either sex, Hazelton-LRE, Kalamazoo, Mich., U.S.A.) or from anesthetized male Sprague-Dawley rats (Harlan Sprague-Dawley, Inc., Indianapolis, Ind., U.S.A.) by venipuncture into 3.8 percent citrate. Fibrinogen is prepared from in-date ACD human blood as the fraction I-2 according to previous procedures and specifications. […] Human fibrinogen is also purchased as 98 percent pure/plasmin free from American Diagnostica, Greenwich, Conn. Coagulation reagents ACTIN, Thromboplastin, and Human plasma are from Baxter Healthcare Corp., Dade Division, Miami, Fla. Bovine thrombin from Parke-Davis ([…], Mich.) is used for coagulation assays in plasma.
(§2) Coagulation assay procedures are as previously described. […] A CoAScreener coagulation instrument (American LABor, Inc.) is used for all coagulation assay measurements. The prothrombin time (PT) is measured by adding 0.05 mL saline and 0.05 mL Thromboplastin-C reagent to 0.05 mL test plasma. The activated partial thromboplastin time (APTT) is measured by incubation of 0.05 mL test plasma with 0.05 mL Actin reagent for 120 seconds followed by 0.05 mL CaCl2 (0.02M). The thrombin time (TT) is measured by adding 0.05 mL saline and 0.05 mL thrombin (10 NIH units/mL) to 0.05 mL test plasma. The compounds of Formula I are added to human or animal plasma over a wide range of concentrations to determine prolongation effects on the APTT, PT, and TT assays. Linear extrapolations are performed to estimate the concentrations required to double the clotting time for each assay.

[3] = system: human plasma; assay: Human plasma anticoagulation, activated partial thromboplastin time (APTT); conditions: concentration required to double APTT, linear extrapolation
Method: as §1, §2

[4] = system: human plasma; assay: Human plasma anticoagulation, prothrombin time (PT); conditions: concentration required to double PT, linear extrapolation
Method: as §1, §2

Row | SMILES | Kass Human Thrombin [1] | Human Plasma Anticoagulation 2x Clotting time TT [2] | Human Plasma Anticoagulation 2x Clotting time APTT [3] | Human Plasma Anticoagulation 2x Clotting time PT [4]
1 | N=C(N)c1ccc(CNC(=O)[C@@H]2CCCN2C(=O)[C@H]2C[C@H]3CCCC[C@H]3CN2)cc1 [Example 19, D-3-Piq-Pro-p-NHCH2 C6 H4 C(NH)NH2.3HCl] | 11 × 10^6 (L/mole) | 58 ng/mL | 300 ng/mL | 540 ng/mL
2 | Nc1ccc(CNC(=O)[C@@H]2CCCN2C(=O)[C@@H](CC2CCCCC2)NCC(=O)O)cc1F [Example 77, HO2 CCH2 -D-Cha-pro-4-NHCH2-2-F-aniline.HCl] | 11 × 10^6 (L/mole) | 53 ng/mL | 1,600 ng/mL | 890 ng/mL
3 | Cl.O=C(O)CN[C@H](CC1CCCCC1)C(=O)N1CCC[C@H]1C(=O)NCC1=CCNCC1 [Example 58, HO2 CCH2 -D-Cha-Pro-4-NHCH2 -3,4-dehydro-piperidine.HCl] | 0.60 × 10^6 (L/mole) | 710 ng/mL |  | 
4 | CS(=O)(=O)CC(=O)N[C@H](CC1CCCCC1)C(=O)N1CCC[C@H]1C(=O)NCc1ccc(C(=N)N)cc1 [Example 92, (N-methylsulfonylacetyl)-L-cyclohexylalanyl-N-[[4-(aminoiminomethyl)phenyl]methyl]-L-prolinamide hydrochloride] |  | 8.9 ng/mL | 210 ng/mL | 340 ng/mL
5 | CCS(=O)(=O)N[C@H](CC1CCCCC1)C(=O)N1CCC[C@H]1C(=O)NCc1ccc(CN)cc1 [Example 81, EtSO2 -D-Cha-Pro-4-NHCH2 C6 H4 CH2 NH2.HCl] |  | 110 ng/mL | 1,500 ng/mL | 2,700 ng/mL
6 | N=C(N)c1ccc(CNC(=O)[C@@H]2CCCN2C(=O)[C@H](N)CC2CCCCC2)cc1 [Example 51, D-cyclohexylalanyl-N-[[4-(aminoiminomethyl)phenyl]methyl]-L-prolinamide di-hydrochloride] |  | 2 ng/mL | 48 ng/mL | 110 ng/mL
7 | Cl.O=C(O)CN[C@H](CC1CCCCC1)C(=O)N1CCC[C@H]1C(=O)NCCCC1=CCNCC1 [Example 60, HO2 CCH2 -D-Cha-Pro-4-NHCH2 CH2 CH2 -3,4-dehydro-piperidine.HCl] | 0.24 × 10^6 (L/mole) | 3,200 ng/mL |  | 
8 | N=C(N)N1CC=C(CNC(=O)[C@@H]2CCCN2C(=O)[C@@H](CC2CCCCC2)NCC(=O)O)CC1 [Example 70, N-(carboxymethyl)-D-cyclohexylalanyl-N-[[1-(aminoiminomethyl)-1,2,3,6-tetrahydropyridin-4-yl]methyl]-L-prolinamide hydrochloride] |  | 2 ng/mL | 160 ng/mL | 180 ng/mL
9 | N=C(N)N1CCC(CNC(=O)[C@@H]2CCCN2C(=O)[C@@H](CC2CCCCC2)NCC(=O)O)CC1 [Example 56, N-(carboxymethyl)-D-cyclohexylalanyl-N-[[1-(aminoiminomethyl)-hexahydropyridin-4-yl-]methyl]-L-prodimamide hydrochloride] |  | 5 ng/mL | 160 ng/mL | 200 ng/mL
10 | CCS(=O)(=O)N[C@H](Cc1ccccc1)C(=O)N1CCC[C@H]1C(=O)NCCc1ccc(NC(=N)N)cc1 [Example 35, EtSO2 -D-Phe-Pro-p-NHCH2 CH2 C6 H4 NHC(NH)NH2.HCl] |  | 4,500 ng/mL | 50,400 ng/mL | 78,400 ng/mL
11 | N=C(N)c1ccc(CNC(=O)[C@@H]2CCCN2C(=O)[C@@H](CC2CCCCC2)NCCC(=O)O)cc1 [Example 52, N-(2-carboxyethyl)-D-cyclohexylalanyl-N-[[4-(aminoiminomethyl)phenyl]methyl]-L-prolinamide hydrochloride] |  | 6 ng/mL | 80 ng/mL | 170 ng/mL
12 | NCC1CCC(CNC(=O)[C@@H]2CCCN2C(=O)[C@@H](CC2CCCCC2)NCC(=O)O)CC1 (stereo partly drawn) [Example 79, HO2 CCH2 -D-Cha-Pro-4-NHCH2 C6 H10 CH2 NH2.HCl] |  | 140 ng/mL | 1,700 ng/mL | 2,400 ng/mL

Second part, led by results:

Row | Kass Human Thrombin [1] | SMILES | Human Plasma Anticoagulation 2x Clotting time TT [2] | Human Plasma Anticoagulation 2x Clotting time APTT [3] | Human Plasma Anticoagulation 2x Clotting time PT [4]
13 | 12 × 10^6 (L/mole) | Cl.Nc1cc(CCNC(=O)[C@@H]2CCCN2C(=O)[C@@H](CC2CCCCC2)NCC(=O)O)ccn1 [Example 76, HO2 CCH2 -D-Cha-Pro-4-NHCH2 CH2 -2-aminopyridine.HCl] | 29 ng/mL | 490 ng/mL | 560 ng/mL
14 | 0.14 × 10^6 (L/mole) | Cl.N=C(N)c1ccc(CNC(=O)CN(CCc2ccccc2)C(=O)CNCC(=O)O)cc1 [Example 89, HOOCCH2 -Gly-N-C6 H5 CH2 CH2 Gly-p-NHCH2 C6 H4 C(NH)NH2.HCl] | 570 ng/mL | 51,000 ng/mL | 37,000 ng/mL
15 | 0.13 × 10^6 (L/mole) | Cl.N=C(N)c1ccc(CCCNC(=O)C2CCCN2C(=O)C2NCCC3CCCCC32)cc1 (stereo not drawn) [Example 32, 1-Piq-Pro-p-NHCH2 CH2 CH2 -C6 H4 C(=NH)NH2.2HCl] | 3,100 ng/mL |  | 
16 | 0.29 × 10^6 (L/mole) | CCS(=O)(=O)N[C@H](Cc1ccccc1)C(=O)N1CCC[C@H]1C(=O)NCCc1cccc(C(=N)N)c1.Cl [Example 27, EtSO2 -D-Phe-Pro-m-NHCH2 CH2 -C6 H4 C(=NH)NH2.HCl] |  |  | 27,000 ng/mL
17 | 2.1 × 10^6 (L/mole) | CCOC(=O)N[C@H](Cc1ccccc1)C(=O)N1CCC[C@H]1C(=O)NCCCCN=C(N)N.Cl [Example 3, EtOCO-D-Phe-Pro-Agm.HCl] | 590 ng/mL |  | 
18 | 5.3 × 10^6 (L/mole) | Cl.NC(N)=NC/C=C/CNC(=O)[C@@H]1CCCN1C(=O)[C@H](N)Cc1ccccc1 (relative stereo) [Example 8, D-Phe-Pro-NHCH2 -trans-CH=CHCH2 NHC(NH)NH2.HCl] | 130 ng/mL |  | 
19 | 5.0 × 10^6 (L/mole) | CCS(=O)(=O)N[C@H](CC1CCCCC1)C(=O)N1CCC[C@H]1C(=O)NCc1ccc(N)cc1F.Cl [Example 82, EtSO2 -D-Cha-Pro-4-NHCH2 -3-F-C6 H3 NH2.HCl] | 130 ng/mL | 3,800 ng/mL | 3,000 ng/mL
20 | 4.4 × 10^6 (L/mole) | CCS(=O)(=O)N[C@H](CC1CCCCC1)C(=O)N1CCC[C@H]1C(=O)NCCCCN=C(N)N.Cl [Example 2, EtSO2 -D-Cha-Pro-Agm.HCl] | 170 ng/mL |  | 
21 | 0.95 × 10^6 (L/mole) | Cl.Cl.N=C(N)c1ccc(CCNC(=O)[C@@H]2CCCN2C(=O)[C@@H]2NCC[C@@H]3CCCC[C@@H]32)cc1 [Example 28, D-1-Piq-pro-p-NHCH2 CH2 -C6 H4 C(=NH)NH2.2HCl] |  | 8,100 ng/mL | 8,300 ng/mL
22 | 0.45 × 10^6 (L/mole) | Cl.Nc1ccc(CCNC(=O)[C@@H]2CCCN2C(=O)[C@@H](CC2CCCCC2)NCC(=O)O)cn1 [Example 75, HO2 CCH2 -D-Cha-Pro-5-NHCH2 CH2 -2-aminopyridine.HCl] |  |  | 
23 | 0.064 × 10^6 (L/mole) | Cl.NCc1cccc(CNC(=O)[C@@H]2CCCN2C(=O)[C@H](N)Cc2ccccc2)c1 [Example 11, D-Phe-Pro-m-NHCH2 C6 H4 CH2 NH2.HCl] | 8,800 ng/mL |  | 
24 | 0.76 × 10^6 (L/mole) | Cl.Cl.N=C(N)c1cccc(CCNC(=O)[C@@H]2CCCN2C(=O)[C@@H]2NCC[C@@H]3CCCC[C@@H]32)c1 [Example 29, D-1-Piq-Pro-m-NHCH2 CH2 -C6 H4 C(=NH )NH2.2HCl] |  | 9,800 ng/mL | 15,000 ng/mL
25 | 0.021 × 10^6 (L/mole) | Cl.Nc1ccc(CCNC(=O)[C@@H]2CCCN2C(=O)[C@H](N)Cc2ccccc2)cc1 [Example 14, D-Phe-Pro-p-NHCH2 CH2 C6 H4 NH2.HCl] | 21,000 ng/mL |  | 
26 | 0.44 × 10^6 (L/mole) | Cl.NC[C@H]1CC[C@H](CNC(=O)[C@@H]2CCCN2C(=O)[C@H](N)Cc2ccccc2)CC1 (relative stereo) [Example 12, D-Phe-Pro-NHCH2 -trans-4-(aminomethyl)cyclohexane.HCl] | 1,700 ng/mL |  | 
